Measurements from PMC10951066, “The self-reactive FVIII T cell repertoire in healthy individuals relies on a short set of epitopes and public clonotypes” (Frontiers in Immunology, 2024).

Columns and labels:
HLA-DRB1*1101 = HLA-DRB1*1101 (Homo sapiens, UniProt P01903+P01911, A100R/A169T/A87E/I96F/K41T/L162R/M171V/P40S/Q125H/Q178H/Q39Y/Q99D/R42S/S66Y/T262R/V115G/W38E); assay: Peptide-MHCII competition binding assay; details: competition ELISA, pH 5.9, peptide 90.000nM – 0.9nM, HLA-DRB1 30 nM, biotinylated peptide 15nM, duplicate wells; ratios below 10 = good binding; reference peptide […]
Experimental: (§1) Quantitative peptide-MHCII competition binding assays were carried out to determine binding avidities of the 18 20-mer FVIII peptides to 6 HLA-DRB1. Data are presented as ratio between reference peptide IC50/FVIII-peptide IC50 tested. Briefly, non-biotinylated FVIII peptides have been diluted at a concentration of 20 mM in DMSO. 10-µl aliquots of serially diluted (90.000nM – 0.9nM in n-Octyl b-D-Glucopyranoside, 2.5 mg/ml in 1x phosphate buffer, pH 5.9) of non-biotinylated FVIII peptides, were added to duplicate wells of 96-well polypropylene plates. Serially diluted non-FVIII reference peptides known to bind to the specific HLA-DRB1 were added to separate wells as positive controls. Next, the biotinylated peptide at a concentration of 2mM was use to prepare 1000-fold pre-dilution to reach a final concentration of 15nM. The HLA-DRB1 proteins were diluted to 30 nM in n-Octyl β-D-Glucopyranoside, 2.5 mg/ml in 1x phosphate buffer, pH 5.9. […] SA-HRP (diluted 5000x in 1xPBS 0.1% Tween20) was added to each well. The plates were covered and incubated at room temperature for 60 min […] and washed. TMB (100 μl/well) was then added, and the plates were incubated at room temperature for 15-30 min. ELISA stopping solution (0.5M H2SO4) was added and then read on a FLUOstar OPTIMA fluorometer. Sigmoidal binding curves were simulated and IC50 values calculated for the FVIII peptides, based on their competition with the reference peptides for each HLA-DRB1. Data were reported as the ratio between the values of the tested peptide and of the reference peptide. Ratios below 10 correspond to good biding affinity.

HLA-DRB1*0701 = HLA-DRB1*0701 (Homo sapiens, UniProt P01903+P01911, A100R/A102G/A103Q/D57E/D86V/E43K/F76Y/K127E/L162R/M171V/P40G/Q125H/Q99D/R33Q/R42Y/R54Q/S133A/S66F/T210M/V115G/Y107V/Y59L/Y89S); assay: Peptide-MHCII competition binding assay; details: competition ELISA, pH 5.9, peptide 90.000nM – 0.9nM, HLA-DRB1 30 nM, biotinylated peptide 15nM, duplicate wells; ratios below 10 = good binding; reference peptide PVDLHAFLSQAVFS
Experimental: as §1

[1] = tested on: CD4 T cells from healthy donors; assay: Large-scale CD4 T cell epitope mapping by IFN-γ ELISPOT (16 donors); assay type: cell-based, human; details: for nb positive T cell lines: across all 16 donors; for cumulative donor coverage (%): cumulative over peptides ranked by donor coverage; for Donor coverage ( %): of 16 donors; for responding donors: of 16 healthy donors, individual peptide 10 µg/ml; for response intensity ( %): percentage of 872 FVIII-specific T cell lines
Text: PBMCs were purified from the whole blood of anonymous healthy donors, who gave informed consent (Etablissement Français du Sang, Rungis, France), using Ficoll-Paque®. Monocyte-derived dendritic cells (DCs) were produced from cells isolated using Percoll gradient by 5 days of culture in AIM-V medium (Invitrogen, Villebon-sur-Yvette, France) supplemented with 1,000 U/ml recombinant human (rh) IL-4 and rhGM-CSF (both from R&D Systems, Lille, France). Mature DCs were produced by two supplementary days of culture in the presence of LPS (1 µg/ml) and R848 (10µg/ml). CD4 T cells were isolated from autologous PBMCs by positive selection using magnetic labeling with anti-CD4 mAbs conjugated to magnetic microbeads followed by magnetic cell sorting, as recommended by the manufacturer (Miltenyi Biotec, Bergisch Gladbach, Germany). Immature DCs were loaded overnight at 37 °C with either 0.2 µM of rFVIII, 0.2 µM of ovalbumin, or 0.25 µM of KLH in 96-well U-bottom plates, while mature DCs were used for FVIII peptides (10 ug/ml). CD4 T cell lines were generated in vitro in IMDM (Invitrogen) supplemented with 10% human serum, 0.24 mM glutamine, 0.55 mM asparagine, 1.5 mM arginine (all amino acids from Sigma-Aldrich), 50 U/mL penicillin/50 μg/mL of streptomycin (Invitrogen), 20 IU/mL human IL-2, and 17 IU/ml human IL-7 (premium-grade; Miltenyi Biotec) by three once-per-week rounds of stimulation of CD4 T cells (200,000 per well) with autologous DCs (20,000 per well). 10,000 lymphocytes were collected at day 19 from each T cell line (expanded T cells contained in one well) and their specificity was assessed by using IFN-g ELISPOT.
The T cell lines and APCs were plated at equal number for both stimulated and unstimulated control conditions. […] The spot number was determined by using the ELISPOT Reader System (Autoimmun Diagnostika, Ebinger, Germany). HLA restriction was assessed using monoclonal antibodies (10 μg/ml) specific to HLA-DP (B7/21), HLA-DQ (SPVL3), or HLA-DR (L243).
Based on the T cell epitope prediction software NetMHCpan4.0 ([23]), we selected 63 20-mer peptides that are predicted for their ability to bind promiscuously, with a percentile score below 10%, at least four HLA class II molecules from a selection of 15 preponderant HLA-DR alleles in our panel (as shown in ST1). […] A total of 16 healthy donors with unrelated HLA typing (ST2) were used as sources of T cells to identify FVIII-specific CD4 T cell epitopes. Specific T cell lines were generated by in vitro T cell culture using FVIII and KLH. The peptide specificity of the T cell lines raised against FVIII was assessed by two independent IFN-γ ELISPOT using peptide pools and individual peptides. […] Furthermore, four independent healthy donors were used as sources of T cells to characterize the HLA restriction and to assess the reactivity of T cell lines generated with the 18 peptides toward rFVIII. T cell lines were amplified in vitro for 28 days through stimulation with the pool of 18 peptides and then tested through IFN-γ ELISPOT.

HLA-DRB1*0101 = HLA-DRB1*0101 (Homo sapiens, UniProt P01903+P01911, A100R/D57E/F55L/F60I/F76Y/I96L/L162R/M171V/P40L/Q125E/R42F/V115G/Y59C); assay: Peptide-MHCII competition binding assay; details: competition ELISA, pH 5.9, peptide 90.000nM – 0.9nM, HLA-DRB1 30 nM, biotinylated peptide 15nM, duplicate wells; ratios below 10 = good binding; reference peptide […]
Experimental: as §1

HLA-DRB1*1501 = HLA-DRB1*1501 (Homo sapiens, UniProt P01903+P01911); assay: Peptide-MHCII competition binding assay; details: competition ELISA, pH 5.9, peptide 90.000nM – 0.9nM, HLA-DRB1 30 nM, biotinylated peptide 15nM, duplicate wells; ratios below 10 = good binding; reference peptide ENPVVHFFKNIVTPR
Experimental: as §1

Row | Sequence | Ratio IC50 DRB1*1101 (HLA-DRB1*1101) | Ratio IC50 DRB1*0701 (HLA-DRB1*0701) | nb positive T cell lines [1] | cumulative donor coverage (%) [1] [%] | Donor coverage ( %) [1] [%] | responding donors [1] | response intensity ( %) [1] | Ratio IC50 DRB1*0101 (HLA-DRB1*0101) | Ratio IC50 DRB1*1501 (HLA-DRB1*1501)
1 | ATRRYYLGAVELSWDYMQSD [P20-39, 20-mer FVIII peptide, A1 domain] | 0.8 | 0.5 | 43 | 81 | 62 | 10 | 4,93% | – | –
2 | DHLFNIAKPRPPWMGLLGPT [P75-94, 20-mer FVIII peptide, A1 domain] | 1.8 | 1 | 38 | 81 | 69 | 11 | 4,36% | 747 | 0.0
3 | HPQSWVHQIALRMEVLGCEA [P2328-2347, 20-mer FVIII peptide, C2 domain] | 2 | 1 | 23 | – | 56 | 9 | 2,64% | 1.6 | –
4 | INGYIMDTLPGLVMAQDQRI [P1940-1959, 20-mer FVIII peptide, A3 domain] | 0.5 | 1.1 | 14 | 94 | 56 | 9 | 1,61% | 6 | –
5 | KARLHLQGRSNAWRPQVNNP [P2226-2245, 20-mer FVIII peptide, C2 domain] | 1.9 | 0.05 | 12 | – | 56 | 9 | 1,38% | 0.2 | 0.6
6 | KEPFSWIKVDLLAPMIIHGI [P2084-2103, 20-mer FVIII peptide, C1 domain] | – | – | 20 | 94 | 56 | 9 | 2,29% | – | –
7 | KKEEYKMALYNLYPGVFETV [P1986-2005, 20-mer FVIII peptide, A3 domain] | – | 0.2 | 18 | – | 50 | 8 | 2,06% | 182 | 0.4
8 | KLARLHYSGSINAWSTKEPF [P2068-2087, 20-mer FVIII peptide, C1 domain] | 4.6 | 0.35 | 20 | – | 50 | 8 | 2,29% | 70.5 | 20
9 | LGQFLLFCHISSHQHDGMEA [P322-341, 20-mer FVIII peptide, A1 domain] | 0.05 | 0.6 | 27 | 81 | 62 | 10 | 3,10% | – | 0.05
10 | LLTRYLRIHPQSWVHQIALR [P2320-2339, 20-mer FVIII peptide, C2 domain] | 1 | 0.05 | 10 | – | 50 | 8 | 1,15% | 1 | 0.0
11 | LSHVDLVKDLNSGLIGALLV [P178-197, 20-mer FVIII peptide, A1 domain] | 0.1 | 0.4 | 19 | 81 | 56 | 9 | 2,18% | 1.7 | 95
12 | PPIIARYIRLHPTHYSIRST [P2161-2180] | 0.4 | 0.05 | 21 | – | 56 | 9 | 2,41% | 1 | 0.05
13 | RHYFIAAVERLWDYGMSSSP [P1715-1734, 20-mer FVIII peptide, A3 domain] | – | 1 | 16 | – | 50 | 8 | 1,83% | 20.4 | 77
14 | SLYISQFIIMYSLDGKKWQT [P2114-2133, 20-mer FVIII peptide, C1 domain] | 0.4 | 0.1 | 10 | – | 50 | 8 | 1,15% | 0.2 | 4
15 | VHSIFLEGHTFLVRNHRQAS [P285-304, 20-mer FVIII peptide, A1 domain] | 0.0 | 2 | 44 | 75 | 75 | 12 | 5,05% | 163 | 11
